6 compounds from patent US20250163104A1, “MACROCYCLIC IMMUNOMODULATORS” (priority 2021, published 2025) can be followed below.

The target of the experiment is T1, human PD-1 / PD-L1-Ig binding on Jurkat cell line over-expressing human PD-1 (Jurkat-PD-1) (Homo sapiens, UniProt Q15116).
T1 construct: expressed in transfected cells; host or cells: Jurkat
Put plainly: Jurkat-PD-1 Cell Binding High-Content Screening Assay (CBA). The class given is cell-based. Conditions: Jurkat-PD-1 cells, PE-labeled PD-L1-Ig 20 nM final; read-out: Jurkat HPD1_PDL1 IC50. The method in brief: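 Jurkat cells over-expressing human PD-1, in DMEM/10% FCS, pre-incubated with compound 2 h at 37° C. PE-labeled human PD-L1-Ig (20 nM final) added for 1 h; cells fixed in paraformaldehyde with Hoechst 33342 nuclear stain, washed, and bound fluorescence quantified by high-content imaging.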

Where a SMILES comes first, the peptide text is derived from it. Bridges are numbered along the chain shown (N, C = ends). [ ]: non-standard residue; d: D form. The star is where a group is joined. Phe(4-COOH) = N[C@@H](Cc1ccc(C(=O)O)cc1)C(=O)O; Bip = N[C@@H](Cc1ccc(-c2ccccc2)cc1)C(=O)O; Phe(4-NH2) = Nc1ccc(C[C@H](N)C(=O)O)cc1; Phe(3-F) = N[C@@H](Cc1cccc(F)c1)C(=O)O; 4Pal = N[C@@H](Cc1ccncc1)C(=O)O; Cha = N[C@@H](CC1CCCCC1)C(=O)O; Cit = NC(=O)NCCC[C@H](N)C(=O)O; dCha = N[C@H](CC1CCCCC1)C(=O)O; Carboxymethyl = O=C(O)C*; Orn = NCCC[C@H](N)C(=O)O; Dab = NCC[C@H](N)C(=O)O; Dap = NC[C@H](N)C(=O)O

The term IC50 denotes the point on the concentration scale where inhibition reaches its midpoint.

T1 sequence (Q15116 25-288): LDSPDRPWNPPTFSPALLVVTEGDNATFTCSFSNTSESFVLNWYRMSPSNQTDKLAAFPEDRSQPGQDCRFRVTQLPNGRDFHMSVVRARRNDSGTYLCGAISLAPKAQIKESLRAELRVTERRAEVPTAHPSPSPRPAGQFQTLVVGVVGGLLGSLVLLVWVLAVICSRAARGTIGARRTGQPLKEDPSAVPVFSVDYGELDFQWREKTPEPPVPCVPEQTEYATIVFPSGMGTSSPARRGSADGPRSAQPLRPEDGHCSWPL

With `CC(C)[C@@H]1NC(=O)[C@H](Cc2c[nH]c3ccccc23)NC(=O)[C@H](CC(=O)O)NC(=O)[C@H](Cc2ccncc2)NC(=O)[C@H](CN)NC(=O)CSC[C@@H](C(=O)N[C@@H](C)C(N)=O)NC(=O)[C@H]([C@@H](C)O)NC(=O)[C@H](C(C)C)NC(=O)[C@H](CC2CCCCC2)NC(=O)[C@H](CCN)NC(=O)[C@@H](CC2CCCCC2)NC(=O)[C@H](CCCN)NC(=O)[C@H](CCC(=O)O)NC(=O)[C@H](Cc2ccc(-c3ccccc3)cc2)NC1=O` [Compound 1440] ({CH2CO}-[Dap][4Pal]DWV[Bip]E[Orn][dCha][Dab][Cha]VTCA-NH2; thioether N-14), the IC50 is 86.8 nM.
As for `CC(C)C[C@@H]1NC(=O)[C@H](Cc2c[nH]c3ccccc23)NC(=O)[C@H](CC(=O)O)NC(=O)[C@H](Cc2ccc(C(=O)O)cc2)NC(=O)[C@H](Cc2ccc(OCC(=O)O)cc2)NC(=O)CSC[C@@H](C(=O)NCC(N)=O)NC(=O)[C@H](CO)NC(=O)[C@H](C(C)C)NC(=O)[C@H](CC(C)C)NC(=O)[C@H](CCN)NC(=O)[C@@H](CC(C)C)NC(=O)[C@H](CCCN)NC(=O)[C@H](C(C)C)NC(=O)[C@H](Cc2ccc(-c3ccccc3)cc2)NC1=O` [Compound 1254] ({CH2CO}-Y(Carboxymethyl)[Phe(4-COOH)]DWL[Bip]V[Orn][dL][Dab]LVSCG-NH2; thioether N-14), the figure is 7.4 nM.
As for `CC(C)C[C@H]1NC(=O)[C@H](CCCN)NC(=O)[C@H](C(C)C)NC(=O)[C@H](Cc2ccc(-c3ccccc3)cc2)NC(=O)[C@H](C(C)C)NC(=O)[C@H](Cc2ccc(N)cc2)NC(=O)[C@H](CC(=O)O)NC(=O)[C@H](Cc2ccc(OCC(=O)O)cc2)NC(=O)[C@H](CN)NC(=O)CSC[C@@H](C(=O)N[C@@H](CCN)C(N)=O)NC(=O)[C@H](CCCCN)NC(=O)[C@H](C(C)C)NC(=O)[C@H](CC2CCCCC2)NC(=O)[C@H](CCN)NC1=O` [Compound 2032] ({CH2CO}-[Dap]Y(Carboxymethyl)D[Phe(4-NH2)]V[Bip]V[Orn][dL][Dab][Cha]VKC[Dab]-NH2; thioether N-14), the figure is 18.1 nM; as for `CC(C)C[C@@H]1NC(=O)[C@H](CCN)NC(=O)[C@@H](CC(C)C)NC(=O)[C@H](CCN)NC(=O)[C@H](CCC(=O)O)NC(=O)[C@H](Cc2ccc(-c3ccccc3)cc2)NC(=O)[C@H](C(C)C)NC(=O)[C@H](Cc2c[nH]c3ccccc23)NC(=O)[C@H](CC(=O)O)NC(=O)[C@H](Cc2ccc(OCC(=O)O)cc2)NC(=O)[C@H](Cc2ccncc2)NC(=O)CSC[C@@H](C(=O)N[C@@H](C)C(N)=O)NC(=O)[C@H](CO)NC(=O)[C@H](C(C)C)NC1=O` [Compound 1266] ({CH2CO}-[4Pal]Y(Carboxymethyl)DWV[Bip]E[Dab][dL][Dab]LVSCA-NH2; thioether N-14), 29.6 nM.
Take `CC(C)C[C@H]1NC(=O)[C@H](CCCN)NC(=O)[C@H](CCCNC(N)=O)NC(=O)[C@H](Cc2ccc(-c3ccccc3)cc2)NC(=O)[C@H](C(C)C)NC(=O)[C@H](Cc2c[nH]c3ccccc23)NC(=O)[C@H](CC(=O)O)NC(=O)[C@H](Cc2ccc(C(=O)O)cc2)NC(=O)[C@H](Cc2ccc(OCC(=O)O)cc2)NC(=O)CSC[C@@H](C(=O)N[C@@H](C)C(N)=O)NC(=O)[C@H]([C@@H](C)O)NC(=O)[C@H](C(C)C)NC(=O)[C@H](Cc2cccc(F)c2)NC(=O)[C@H](CCN)NC1=O` [Compound 1675] ({CH2CO}-Y(Carboxymethyl)[Phe(4-COOH)]DWV[Bip][Cit][Orn][dL][Dab][Phe(3-F)]VTCA-NH2; thioether N-14): the IC50 was 20.9 nM.
With `CC(C)[C@@H]1NC(=O)[C@H](Cc2c[nH]c3ccccc23)NC(=O)[C@H](CC(=O)O)NC(=O)[C@H](Cc2ccc(C(=O)O)cc2)NC(=O)[C@H](Cc2ccncc2)NC(=O)CSC[C@@H](C(=O)N[C@@H](C)C(N)=O)NC(=O)[C@H]([C@@H](C)O)NC(=O)[C@H](C(C)C)NC(=O)[C@H](CC2CCCCC2)NC(=O)[C@H](CCN)NC(=O)[C@@H](CC2CCCCC2)NC(=O)[C@H](CCCN)NC(=O)[C@H](CCC(=O)O)NC(=O)[C@H](Cc2ccc(-c3ccccc3)cc2)NC1=O` [Compound 1439] ({CH2CO}-[4Pal][Phe(4-COOH)]DWV[Bip]E[Orn][dCha][Dab][Cha]VTCA-NH2; thioether N-14), the IC50 came to 5.5 nM.
